Reference: patent publication US6355799B1, “Substituted benzene compounds, process for their preparation, and herbicidal and defoliant compositions containing them” (ISK Americas Incorporated, priority 1997, dated 2002)

How the values were obtained:
Assay type in all cases: in vivo
[1] = tested on: redroot pigweed (Amaranthus retroflexus, AMARE); test: Pre-emerge test, greenhouse herbicide activity screening; conditions: pre-emerge, 14 days after application, scale 0-100
In short: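 Compounds in acetone were track-sprayed at 15-1000 g ai/ha (187 l/ha) on sandy loam pots: pre-emerge one day after seeding, post-emerge at 2-3 leaf stage with 0.25% v/v non-ionic surfactant. Phytotoxicity was rated 14 days later on a 0 (no damage) to 100 (complete death) scale.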

[2] = tested on: barnyardgrass (Echinochloa crus-galli, ECHCG); test: as above; conditions: pre-emerge, 14 days after application, scale 0-100
In short: (§1)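 Applied at 15–1000 g ai/ha from acetone in 187 l/ha spray volume. Post-emergence applications included 0.25% v/v non-ionic surfactant and reached plants sown 8–21 days before. Pre-emergence applications were incorporated by surface watering. Efficacy or crop damage was rated on a 0–100 scale after 14 days.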

[3] = tested on: green foxtail (Setaria viridis, SETVI); test: as above; conditions: pre-emerge, 14 days after application, scale 0-100
In short: as §1

[4] = tested on: ivyleaf morningglory (Ipomoea hederacea, IPOHE); test: as above; conditions: pre-emerge, 14 days after application, scale 0-100
In short: as §1

[5] = tested on: johnsongrass (Sorghum halepense, SORHA); test: as above; conditions: pre-emerge, 14 days after application, scale 0-100
In short: as §1

[6] = tested on: lambsquarters (Chenopodium album, CHEAL); test: as above; conditions: pre-emerge, 14 days after application, scale 0-100
In short: as §1

[7] = tested on: large crabgrass (Digitaria sanguinalis, DIGSA); test: as above; conditions: pre-emerge, 14 days after application, scale 0-100
In short: as §1

[8] = tested on: sicklepod (Cassia obtusifolia, CASOB); test: as above; conditions: pre-emerge, 14 days after application, scale 0-100
In short: as §1

[9] = tested on: velvetleaf (Abutilon theophrasti, ABUTH); test: as above; conditions: pre-emerge, 14 days after application, scale 0-100
In short: as §1

[10] = tested on: field corn (Zea mays L., var. Dekalb 535, CORN); test: Pre-emerge test, crop safety; conditions: pre-emerge, 14 days after application, scale 0-100
In short: (§2)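 Plants grown in 10 cm pots of sandy loam mix received acetone-dissolved compounds through a moving flat-fan nozzle. Doses ranged from 15 to 1000 g ai/ha. Pre-emerge pots were seeded one day earlier, post-emerge pots 8–21 days earlier. Fourteen days on, each pot was graded 0–100 for damage.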

[11] = tested on: upland rice (Oryza sp., var. Tebonnet, RICE); test: Pre-emerge test, crop safety; conditions: pre-emerge, 14 days after application, scale 0-100
In short: as §2

[12] = tested on: barnyardgrass (Echinochloa crus-galli, ECHCG); test: Post-emerge test, greenhouse herbicide activity screening; conditions: post-emerge, 14 days after application, rating scale 0-100
In short: (§3)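 Compounds in acetone were track-sprayed at 15–1000 g ai/ha: pre-emergence onto soil sown the previous day, then top-watered to incorporate and later bottom-watered; post-emergence onto 2–3 leaf plants with 0.25% v/v surfactant, bottom-watered only. Ratings on a 0–100 phytotoxicity scale were taken at day 14.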

[13] = tested on: common ragweed (Ambrosia artemisizfolia L., AMBEL); test: as above; conditions: post-emerge, 14 days after application, rating scale 0-100
In short: as §3

[14] = tested on: green foxtail (Setaria viridis, SETVI); test: as above; conditions: post-emerge, 14 days after application, rating scale 0-100
In short: as §3

[15] = tested on: ivyleaf morningglory (Ipomoea hederacea, IPOHE); test: as above; conditions: post-emerge, 14 days after application, rating scale 0-100
In short: as §3

[16] = tested on: johnsongrass (Sorghum halepense, SORHA); test: as above; conditions: post-emerge, 14 days after application, rating scale 0-100
In short: as §3

[17] = tested on: lambsquarters (Chenopodium album, CHEAL); test: as above; conditions: post-emerge, 14 days after application, rating scale 0-100
In short: as §3

[18] = tested on: large crabgrass (Digitaria sanguinalis, DIGSA); test: as above; conditions: post-emerge, 14 days after application, rating scale 0-100
In short: as §3

[19] = tested on: redroot pigweed (Amaranthus retroflexus, AMARE); test: as above; conditions: post-emerge, 14 days after application, rating scale 0-100
In short: as §3

[20] = tested on: sicklepod (Cassia obtusifolia, CASOB); test: as above; conditions: post-emerge, 14 days after application, rating scale 0-100
In short: as §3

[21] = tested on: velvetleaf (Abutilon theophrasti, ABUTH); test: as above; conditions: post-emerge, 14 days after application, rating scale 0-100
In short: as §3

[22] = tested on: field corn (Zea mays L., var. Dekalb 535, CORN); test: Post-emerge test, crop safety; conditions: post-emerge, 14 days after application, rating scale 0-100
In short: as §1

[23] = tested on: upland rice (Oryza sp., var. Tebonnet, RICE); test: Post-emerge test, crop safety; conditions: post-emerge, 14 days after application, rating scale 0-100
In short: as §1

Question: Which results are given for `COc1c(Cl)cc(F)c(-n2c(=O)cc(C(F)(F)F)n(C)c2=O)c1NC(=O)Cc1ccccc1` [2-151]?
Answer: phytotoxicity rating AMARE ([1]; 63 g ai/ha): 0; phytotoxicity rating AMARE ([1]; 250 g ai/ha): 0; phytotoxicity rating ECHCG ([2]; 63 g ai/ha): 0; phytotoxicity rating ECHCG ([2]; 250 g ai/ha): 0; phytotoxicity rating SETVI ([3]; 63 g ai/ha): 0; phytotoxicity rating SETVI ([3]; 250 g ai/ha): 0; phytotoxicity rating IPOHE ([4]; 63 g ai/ha): 0; phytotoxicity rating IPOHE ([4]; 250 g ai/ha): 40; phytotoxicity rating SORHA ([5]; 63 g ai/ha): 0; phytotoxicity rating SORHA ([5]; 250 g ai/ha): 40; phytotoxicity rating CHEAL ([6]; 63 g ai/ha): 0; phytotoxicity rating CHEAL ([6]; 250 g ai/ha): 80; phytotoxicity rating DIGSA ([7]; 63 g ai/ha): 0; phytotoxicity rating DIGSA ([7]; 250 g ai/ha): 40; phytotoxicity rating CASOB ([8]; 63 g ai/ha): 0; phytotoxicity rating CASOB ([8]; 250 g ai/ha): 70; phytotoxicity rating ABUTH ([9]; 63 g ai/ha): 30; phytotoxicity rating ABUTH ([9]; 250 g ai/ha): 100; phytotoxicity rating CORN (crop damage) ([10]; 63 g ai/ha): 0; phytotoxicity rating CORN (crop damage) ([10]; 250 g ai/ha): 30; phytotoxicity rating RICE (crop damage) ([11]; 63 g ai/ha): 0; phytotoxicity rating RICE (crop damage) ([11]; 250 g ai/ha): 30; ECHCG phytotoxicity rating ([12]; 63 g ai/ha): 0; ECHCG phytotoxicity rating ([12]; 250 g ai/ha): 0; AMBEL phytotoxicity rating ([13]; 63 g ai/ha): 20; AMBEL phytotoxicity rating ([13]; 250 g ai/ha): 30; SETVI phytotoxicity rating ([14]; 63 g ai/ha): 0; SETVI phytotoxicity rating ([14]; 250 g ai/ha): 0; IPOHE phytotoxicity rating ([15]; 63 g ai/ha): 30; IPOHE phytotoxicity rating ([15]; 250 g ai/ha): 100; SORHA phytotoxicity rating ([16]; 63 g ai/ha): 0; SORHA phytotoxicity rating ([16]; 250 g ai/ha): 0; CHEAL phytotoxicity rating ([17]; 63 g ai/ha): 10; CHEAL phytotoxicity rating ([17]; 250 g ai/ha): 10; DIGSA phytotoxicity rating ([18]; 63 g ai/ha): 0; DIGSA phytotoxicity rating ([18]; 250 g ai/ha): 0; AMARE phytotoxicity rating ([19]; 63 g ai/ha): 10; AMARE phytotoxicity rating ([19]; 250 g ai/ha): 20; CASOB phytotoxicity rating ([20]; 63 g ai/ha): 10; CASOB phytotoxicity rating ([20]; 250 g ai/ha): 50; ABUTH phytotoxicity rating ([21]; 63 g ai/ha): 0; ABUTH phytotoxicity rating ([21]; 250 g ai/ha): 50; CORN phytotoxicity rating (crop damage) ([22]; 63 g ai/ha): 0; CORN phytotoxicity rating (crop damage) ([22]; 250 g ai/ha): 0; RICE phytotoxicity rating (crop damage) ([23]; 63 g ai/ha): 0; RICE phytotoxicity rating (crop damage) ([23]; 250 g ai/ha): 10

Question: Which results are given for `COc1c(Cl)cc(F)c(-n2c(=O)cc(C(F)(F)F)n(C)c2=O)c1NC(=O)c1ccc2c(Br)cccc2c1` [2-158]?
Answer: phytotoxicity rating AMARE ([1]; 63 g ai/ha): 100; phytotoxicity rating AMARE ([1]; 250 g ai/ha): 100; phytotoxicity rating ECHCG ([2]; 63 g ai/ha): 50; phytotoxicity rating ECHCG ([2]; 250 g ai/ha): 80; phytotoxicity rating SETVI ([3]; 63 g ai/ha): 0; phytotoxicity rating SETVI ([3]; 250 g ai/ha): 95; phytotoxicity rating IPOHE ([4]; 63 g ai/ha): 0; phytotoxicity rating IPOHE ([4]; 250 g ai/ha): 0; phytotoxicity rating SORHA ([5]; 63 g ai/ha): 0; phytotoxicity rating SORHA ([5]; 250 g ai/ha): 20; phytotoxicity rating CHEAL ([6]; 63 g ai/ha): 100; phytotoxicity rating CHEAL ([6]; 250 g ai/ha): 100; phytotoxicity rating DIGSA ([7]; 63 g ai/ha): 80; phytotoxicity rating DIGSA ([7]; 250 g ai/ha): 95; phytotoxicity rating CASOB ([8]; 63 g ai/ha): 0; phytotoxicity rating CASOB ([8]; 250 g ai/ha): 0; phytotoxicity rating ABUTH ([9]; 63 g ai/ha): 80; phytotoxicity rating ABUTH ([9]; 250 g ai/ha): 95; phytotoxicity rating CORN (crop damage) ([10]; 63 g ai/ha): 0; phytotoxicity rating CORN (crop damage) ([10]; 250 g ai/ha): 0; phytotoxicity rating RICE (crop damage) ([11]; 63 g ai/ha): 0; phytotoxicity rating RICE (crop damage) ([11]; 250 g ai/ha): 10; ECHCG phytotoxicity rating ([12]; 63 g ai/ha): 0; ECHCG phytotoxicity rating ([12]; 250 g ai/ha): 50; AMBEL phytotoxicity rating ([13]; 63 g ai/ha): 50; AMBEL phytotoxicity rating ([13]; 250 g ai/ha): 100; SETVI phytotoxicity rating ([14]; 63 g ai/ha): 10; SETVI phytotoxicity rating ([14]; 250 g ai/ha): 70; IPOHE phytotoxicity rating ([15]; 63 g ai/ha): 20; IPOHE phytotoxicity rating ([15]; 250 g ai/ha): 80; SORHA phytotoxicity rating ([16]; 63 g ai/ha): 0; SORHA phytotoxicity rating ([16]; 250 g ai/ha): 0; CHEAL phytotoxicity rating ([17]; 63 g ai/ha): 90; CHEAL phytotoxicity rating ([17]; 250 g ai/ha): 95; DIGSA phytotoxicity rating ([18]; 63 g ai/ha): 0; DIGSA phytotoxicity rating ([18]; 250 g ai/ha): 30; AMARE phytotoxicity rating ([19]; 63 g ai/ha): 100; AMARE phytotoxicity rating ([19]; 250 g ai/ha): 100; CASOB phytotoxicity rating ([20]; 63 g ai/ha): 90; CASOB phytotoxicity rating ([20]; 250 g ai/ha): 100; ABUTH phytotoxicity rating ([21]; 63 g ai/ha): 95; ABUTH phytotoxicity rating ([21]; 250 g ai/ha): 100; CORN phytotoxicity rating (crop damage) ([22]; 63 g ai/ha): 0; CORN phytotoxicity rating (crop damage) ([22]; 250 g ai/ha): 0; RICE phytotoxicity rating (crop damage) ([23]; 63 g ai/ha): 20; RICE phytotoxicity rating (crop damage) ([23]; 250 g ai/ha): 60
